Laboratory results taken from US20260108546A1 (ELI LILLY AND COMPANY, priority 2024, published 2026).

Biological target: T1, hGIP-R (Homo sapiens, UniProt P48546)
T1 construct: expressed in transfected cells; host or cells: HEK-293 clonal cell lines
T1 sequence (P48546 22-466): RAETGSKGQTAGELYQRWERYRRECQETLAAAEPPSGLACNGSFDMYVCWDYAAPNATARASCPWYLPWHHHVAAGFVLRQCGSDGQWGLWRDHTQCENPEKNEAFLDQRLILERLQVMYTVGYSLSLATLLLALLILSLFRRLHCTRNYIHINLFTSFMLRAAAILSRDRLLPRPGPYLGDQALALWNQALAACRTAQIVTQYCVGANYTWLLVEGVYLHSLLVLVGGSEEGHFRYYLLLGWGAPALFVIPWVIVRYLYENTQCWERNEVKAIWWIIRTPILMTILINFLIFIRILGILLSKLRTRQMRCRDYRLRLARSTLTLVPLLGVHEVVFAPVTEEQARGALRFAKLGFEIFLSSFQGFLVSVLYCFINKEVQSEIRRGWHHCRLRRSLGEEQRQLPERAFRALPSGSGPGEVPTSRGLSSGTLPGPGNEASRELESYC
Assay: Functional hGIP-R Assay (cAMP formation, HTRF)
Type: cell-based
Conditions: for Emax: cAMP efficacy, percent of maximal response to GIP(1-42)OH, 37° C., 0.1% bovine casein, arithmetic mean ± SEM; for EC50: cAMP potency, HEK-293 cells expressing hGIP-R, incubated at 37° C. in the presence of 0.1% bovine casein, geometric mean, read-out: Human GIP-R EC50, nM (SEM, n)
How it was run: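 Relative EC50 and Emax came from four-parameter logistic fits of cAMP as a percent of the human GIP (1-42) OH maximal response. The cAMP was measured by competitive HTRF after 30 min, 37 °C compound exposure of hGIP-R HEK-293 clones in IBMX (250 μM)-containing medium.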

Row | SMILES | Emax | EC50
1 | [2H]C([2H])([2H])N(C(=O)[C@H]1C[C@@H]1c1ccc(-c2cnc3nn(C)cc3c2)nc1C(F)F)[C@H](Cc1cnn(C(F)F)c1)C(=O)NC(C)(C)Cn1nc(C(F)(F)F)cc1-c1cc(F)c(=O)n(C)c1 [Example 137, (1S,2S)-N-((R)-3-(1-(Difluoromethyl)-1H-pyrazol-4-yl)-1-((1-(5-(5-fluoro-1-methyl-6-oxo-1,6-dihydropyridin-3-yl)-3-(trifluoromethyl)-1H-pyrazol-1-yl)-2-methylpropan-2-yl)amino)-1-oxopropan-2-yl)-2-(2-(difluoromethyl)-6-(2-methyl-2H-pyrazolo[3,4-b]pyridin-5-yl)pyridin-3-yl)-N-(methyl-d3)cyclopropane-1-carboxamide] | 61.7 ± 1.34% | 12.3 nM
2 | [2H]C([2H])([2H])n1cc(C[C@H](C(=O)NC(C)(C)Cn2nc(C(F)(F)F)cc2-c2ccc(C(C)(C)O)nc2)N2CC[C@@]3(C[C@@H]3c3ccc(-c4cnc5nc(COC)cn5c4)cc3Cl)C2=O)cn1 [Example 188, (R)-2-((1S,3R)-1-(2-chloro-4-(2-(methoxymethyl)imidazo[1,2-a]pyrimidin-6-yl)phenyl)-4-oxo-5-azaspiro[2.4]heptan-5-yl)-N-(1-(5-(6-(2-hydroxypropan-2-yl)pyridin-3-yl)-3-(trifluoromethyl)-1H-pyrazol-1-yl)-2-methylpropan-2-yl)-3-(1-(methyl-d3)-1H-pyrazol-4-yl)propanamide] | 110 ± 4.51% | 0.265 nM
3 | Cn1cc2cc(-c3ccc(C4CC45CCN([C@H](Cc4cnn(C(F)F)c4)C(=O)NC(C)(C)Cn4nc(C(F)(F)F)cc4-c4ccc(=O)n(C)c4)C5=O)c(C(F)(F)F)n3)cnc2n1 (single isomer, unassigned; isomer 1) [Example 113] | 45.5 ± 2.18% | 1.22 nM
4 | [2H]C([2H])([2H])n1cc(C[C@H](C(=O)NC(C)(C)Cn2nc(C(F)(F)F)cc2-c2cnc(C(C)(C)O)nc2)N2CC[C@@]3(C[C@@H]3c3ccc(-c4cnc5nn(C6CC6)cc5c4)nc3C)C2=O)cn1 [Example 191, (R)-2-((1R,3R)-1-(6-(2-cyclopropyl-2H-pyrazolo[3,4-b]pyridin-5-yl)-2-methylpyridin-3-yl)-4-oxo-5-azaspiro[2.4]heptan-5-yl)-N-(1-(5-(2-(2-hydroxypropan-2-yl)pyrimidin-5-yl)-3-(trifluoromethyl)-1H-pyrazol-1-yl)-2-methylpropan-2-yl)-3-(1-(methyl-d3)-1H-pyrazol-4-yl)propanamide] | 78.5 ± 0.865% | 2.89 nM
5 | CN(C(=O)[C@H]1C[C@@H]1c1ccc(NC(=O)Nc2ccc(F)cc2)cc1)[C@H](Cc1cnn(C)c1)C(=O)NC(C)(C)Cc1ccc(F)cc1 [Example 36, (1S,2S)-N-((R)-1-((1-(4-Fluorophenyl)-2-methylpropan-2-yl)amino)-3-(1-methyl-1H-pyrazol-4-yl)-1-oxopropan-2-yl)-2-(4-(3-(4-fluorophenyl)ureido)phenyl)-N-methylcyclopropane-1-carboxamide] | 94 ± 11.1% | 104 nM
6 | Cn1cc2cc(-c3ccc([C@H]4C[C@@H]4C(=O)N[C@H](Cc4cnc5ncccn45)C(=O)NC(C)(C)Cn4nc(C(F)(F)F)cc4-c4ccc(=O)n(C)c4)cc3)cnc2n1 [Example 62, (1S,2S)-N-((R)-3-(imidazo[1,2-a]pyrimidin-3-yl)-1-((2-methyl-1-(5-(1-methyl-6-oxo-1,6-dihydropyridin-3-yl)-3-(trifluoromethyl)-1H-pyrazol-1-yl)propan-2-yl)amino)-1-oxopropan-2-yl)-2-(4-(2-methyl-2H-pyrazolo[3,4-b]pyridin-5-yl)phenyl) cyclopropane-1-carboxamide] | 67.8 ± 10.2% | 17.5 nM
7 | Cn1cc(C[C@@H](NC(=O)[C@H]2C[C@@H]2c2ccc(-c3cnc4nn(C)cc4c3)cc2)C(=O)NC(C)(C)Cn2nc(C(F)(F)F)cc2-c2cnn3c2CN(C(=O)OC(C)(C)C)CC3)cn1 [Example 56, tert-Butyl 3-(1-(2-methyl-2-((R)-3-(1-methyl-1H-pyrazol-4-yl)-2-((1S,2S)-2-(4-(2-methyl-2H-pyrazolo[3,4-b]pyridin-5-yl)phenyl)cyclopropane-1-carboxamido)propanamido)propyl)-3-(trifluoromethyl)-1H-pyrazol-5-yl)-6,7-dihydropyrazolo[1,5-a]pyrazine-5(4H)-carboxylate] | 113 ± 10.7% | 84.6 nM
8 | Cn1cc(-c2cc(C(F)(F)F)nn2CC(C)(C)NC(=O)[C@@H](Cc2cnn(C(F)F)c2)NC(=O)[C@H]2C[C@@H]2c2nc3c(Cl)nn(C)c3cc2C#N)cc(F)c1=O [Example 155, (1S,2S)-2-(3-Chloro-6-cyano-1-methyl-1H-pyrazolo[4,3-b]pyridin-5-yl)-N—((R)-3-(1-(difluoromethyl)-1H-pyrazol-4-yl)-1-((1-(5-(5-fluoro-1-methyl-6-oxo-1,6-dihydropyridin-3-yl)-3-(trifluoromethyl)-1H-pyrazol-1-yl)-2-methylpropan-2-yl)amino)-1-oxopropan-2-yl)cyclopropane-1-carboxamide] | 78.1 ± 4.92% | 118 nM
9 | Cc1cn2cc(-c3ccc(C4CC45CCN([C@H](Cc4cnn(C(F)F)c4)C(=O)NC(C)(C)Cn4nc(C(F)(F)F)cc4-c4cc(F)c(=O)n(C)c4)C5=O)c(C(F)F)c3)cnc2n1 (single isomer, unassigned; isomer 1) [Example 108] | 81.7 ± 1.63% | 0.47 nM
10 | Cn1cc2cc(-c3ccc([C@H]4C[C@@]45CCN([C@H](Cc4cnn(C(F)F)c4)C(=O)NC(C)(C)Cn4nc(C(F)(F)F)cc4-c4ccc(=O)n(C)c4)C5=O)cc3)cnc2n1 [Example 63, (R)-3-(1-(Difluoromethyl)-1H-pyrazol-4-yl)-N-(2-methyl-1-(5-(1-methyl-6-oxo-1,6-dihydropyridin-3-yl)-3-(trifluoromethyl)-1H-pyrazol-1-yl)propan-2-yl)-2-((1R,3R)-1-(4-(2-methyl-2H-pyrazolo[3,4-b]pyridin-5-yl)phenyl)-4-oxo-5-azaspiro[2.4]heptan-5-yl)propanamide] | 62.1 ± 3.55% | 21.6 nM
11 | COCc1cn2cc(-c3ccc([C@H]4C[C@@]45CCN([C@H](Cc4cnn(C(F)F)c4)C(=O)NC(C)(C)Cn4nc(C(F)(F)F)cc4-c4cncc(C)n4)C5=O)c(C)n3)cnc2n1 [Example 176, (R)-3-(1-(difluoromethyl)-1H-pyrazol-4-yl)-2-((1R,3R)-1-(6-(2-(methoxymethyl)imidazo[1,2-a]pyrimidin-6-yl)-2-methylpyridin-3-yl)-4-oxo-5-azaspiro[2.4]heptan-5-yl)-N-(2-methyl-1-(5-(6-methylpyrazin-2-yl)-3-(trifluoromethyl)-1H-pyrazol-1-yl)propan-2-yl)propanamide] | 123% | 14.4 nM
12 | CC(C)(Cc1ccc(F)cc1)NC(=O)[C@@H](Cc1cnc2ncccn12)NC(=O)[C@H]1C[C@@H]1c1ccc(NC(=O)C2CC(F)(F)C2)cc1 [Example 48, 3,3-Difluoro-N-(4-((1S,2S)-2-(((R)-1-((1-(4-fluorophenyl)-2-methylpropan-2-yl)amino)-3-(imidazo[1,2-a]pyrimidin-3-yl)-1-oxopropan-2-yl)carbamoyl)cyclopropyl)phenyl)cyclobutane-1-carboxamide] | 56.5 ± 4.38% | 76.9 nM
13 | Cn1cc(-c2cc(C(F)(F)F)nn2CC(C)(C)NC(=O)[C@@H](Cc2cnn(C(F)F)c2)NC(=O)[C@H]2C[C@@H]2c2ccc3c(c2)n(C)c(=O)n3C)cc(F)c1=O [Example 182] | 30.4 ± 2.08% | 41.4 nM
14 | COCc1cn2cc(-c3ccc([C@H]4C[C@@]45CCN([C@H](Cc4cnn(C(F)F)c4)C(=O)NC(C)(C)Cn4nc(C(F)(F)F)cc4-c4ccnc(C(C)(C)O)c4)C5=O)c(C)n3)cnc2n1 [Example 160, (R)-3-(1-(difluoromethyl)-1H-pyrazol-4-yl)-N-(1-(5-(2-(2-hydroxypropan-2-yl)pyridin-4-yl)-3-(trifluoromethyl)-1H-pyrazol-1-yl)-2-methylpropan-2-yl)-2-((1R,3R)-1-(6-(2-(methoxymethyl)imidazo[1,2-a]pyrimidin-6-yl)-2-methylpyridin-3-yl)-4-oxo-5-azaspiro[2.4]heptan-5-yl)propanamide] | 119 ± 3.76% | 1.24 nM
15 | [2H]C([2H])([2H])n1cc(-c2cc(C(F)(F)F)nn2CC(C)(C)NC(=O)[C@@H](Cc2cnn(C(F)F)c2)N2CC[C@@]3(C[C@@H]3c3ccc(-c4cnc5nn(C)cc5c4)cc3)C2=O)ccc1=O [Example 120, (R)-3-(1-(Difluoromethyl)-1H-pyrazol-4-yl)-N-(2-methyl-1-(5-(1-(methyl-d3)-6-oxo-1,6-dihydropyridin-3-yl)-3-(trifluoromethyl)-1H-pyrazol-1-yl)propan-2-yl)-2-((1R,3R)-1-(4-(2-methyl-2H-pyrazolo[3,4-b]pyridin-5-yl)phenyl)-4-oxo-5-azaspiro[2.4]heptan-5-yl)propanamide] | 72.4 ± 2.16% | 33.5 nM
